3 compounds from ChEMBL document CHEMBL4024738, “Design of antitumor agents containing carbohydrate based on GLUT1, and evaluation of antiproliferative activity” (Bioorg Med Chem Lett, 2017) can be followed below.

For series [1], the target named is T1, Solute carrier family 2, facilitated glucose transporter member 1 (Homo sapiens, UniProt P11166).
T1 sequence (P11166 whole entry): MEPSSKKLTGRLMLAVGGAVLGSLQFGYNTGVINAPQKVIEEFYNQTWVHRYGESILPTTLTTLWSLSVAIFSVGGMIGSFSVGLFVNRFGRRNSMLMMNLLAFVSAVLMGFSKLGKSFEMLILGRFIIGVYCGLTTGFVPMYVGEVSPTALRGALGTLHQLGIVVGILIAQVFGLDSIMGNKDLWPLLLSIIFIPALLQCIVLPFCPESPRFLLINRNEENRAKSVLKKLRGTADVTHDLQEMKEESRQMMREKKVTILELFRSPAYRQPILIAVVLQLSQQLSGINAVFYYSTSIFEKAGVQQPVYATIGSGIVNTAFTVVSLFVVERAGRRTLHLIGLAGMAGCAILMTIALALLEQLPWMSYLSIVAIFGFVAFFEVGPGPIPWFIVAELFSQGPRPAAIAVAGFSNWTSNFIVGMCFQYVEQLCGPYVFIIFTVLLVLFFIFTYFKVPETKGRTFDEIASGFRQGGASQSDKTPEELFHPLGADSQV
The experiment in a line: Substrate activity at GLUT1 in human A549 cells assessed cellular uptake at 20 uM after 8 hrs by HPLC analysis relative to control. It is filed as ADME, cell-based. The note with it: a549, 8 h.

Series [2] in a line: Antiproliferative activity against human U87 cells after 48 hrs by MTT assay. The format is functional, cell-based, U-87MG ATCC. The note with it: U-87 MG. A general note: Tetrazolium dyes change colour on reduction, which living cells bring about.
For series [3], the system named is A549. Put plainly: Antiproliferative activity against human A549 cells after 48 hrs by MTT assay. It is filed as functional, cell-based. The note with it: A549, 48 h.
Series [4] deals with HepG2. Put plainly: Antiproliferative activity against human HepG2 cells after 48 hrs by MTT assay. It is filed as functional, cell-based. The note with it: HepG2, 48 h.
Series [5] relates to HeLa. The experiment in a line: Antiproliferative activity against human HeLa cells after 48 hrs by MTT assay. It is filed as functional, cell-based.
Series [6] concerns A549. Put plainly: Potency index, ratio of gefitinib IC50 to compound IC50 against human A549 cells. It is filed as functional.
Series [7] relates to A549. Put plainly: Antimigratory activity against human A549 cells assessed as reduction in cell migration towards wound area after 48 hrs by phase contrast microscopic method. The format is functional, cell-based.
The subject of series [8] is A549. The experiment in a line: Induction of apoptosis in human A549 cells assessed as live cells at 8 uM after 48 hrs by annexin V-FITC/propidium iodide staining-based flow cytometric method (reference value: 93.6%). It is filed as functional. For orientation: Flow cytometry measures light scatter and fluorescence of single cells or particles in a stream.
Series [9] has as its system A549. The experiment in a line: Induction of apoptosis in human A549 cells assessed as early apoptotic cells at 8 uM after 48 hrs by annexin V-FITC/propidium iodide staining-based flow cytometric method (reference value: 3.87%). The format is functional.
For series [10], the system named is A549. The experiment in a line: Induction of apoptosis in human A549 cells assessed as late apoptotic cells at 8 uM after 48 hrs by annexin V-FITC/propidium iodide staining-based flow cytometric method (reference value: 2.39%). The format is functional.
Series [11] relates to A549. Put plainly: Induction of apoptosis in human A549 cells assessed as necrotic cells at 8 uM after 48 hrs by annexin V-FITC/propidium iodide staining-based flow cytometric method (reference value: 0.13%). The format is functional.
Series [12] concerns A549. The experiment in a line: Induction of apoptosis in human A549 cells assessed as live cells at 16 uM after 48 hrs by annexin V-FITC/propidium iodide staining-based flow cytometric method (reference value: 93.6%). The format is functional.
Series [13] deals with A549. Put plainly: Induction of apoptosis in human A549 cells assessed as early apoptotic cells at 16 uM after 48 hrs by annexin V-FITC/propidium iodide staining-based flow cytometric method (reference value: 3.87%). The format is functional.
The test system of series [14] is A549. Put plainly: Induction of apoptosis in human A549 cells assessed as late apoptotic cells at 16 uM after 48 hrs by annexin V-FITC/propidium iodide staining-based flow cytometric method (reference value: 2.39%). The format is functional.
In series [15] the test system is A549. Put plainly: Induction of apoptosis in human A549 cells assessed as necrotic cells at 16 uM after 48 hrs by annexin V-FITC/propidium iodide staining-based flow cytometric method (reference value: 0.13%). The format is functional.
The subject of series [16] is A549. Put plainly: Induction of apoptosis in human A549 cells assessed as live cells at 24 uM after 48 hrs by annexin V-FITC/propidium iodide staining-based flow cytometric method (reference value: 93.6%). It is filed as functional.
Series [17] deals with A549. Put plainly: Induction of apoptosis in human A549 cells assessed as early apoptotic cells at 24 uM after 48 hrs by annexin V-FITC/propidium iodide staining-based flow cytometric method (reference value: 3.87%). It is filed as functional.
Series [18] has as its system A549. Put plainly: Induction of apoptosis in human A549 cells assessed as late apoptotic cells at 24 uM after 48 hrs by annexin V-FITC/propidium iodide staining-based flow cytometric method (reference value: 2.39%). It is filed as functional.
In series [19] the test system is A549. The experiment in a line: Induction of apoptosis in human A549 cells assessed as necrotic cells at 24 uM after 48 hrs by annexin V-FITC/propidium iodide staining-based flow cytometric method (reference value: 0.13%). The format is functional.
In series [20] the test system is A549. Put plainly: Cell cycle arrest in human A549 cells assessed as accumulation at G0/G1 phase at 8 uM after 48 hrs by propidium iodide staining based flow cytometric analysis (reference value: 42.86%). The format is functional.
Series [21] concerns A549. The experiment in a line: Cell cycle arrest in human A549 cells assessed as accumulation at S phase at 8 uM after 48 hrs by propidium iodide staining based flow cytometric analysis (reference value: 54.85%). It is filed as functional.
The test system of series [22] is A549. The experiment in a line: Cell cycle arrest in human A549 cells assessed as accumulation at G2/M phase at 8 uM after 48 hrs by propidium iodide staining based flow cytometric analysis (reference value: 2.29%). The format is functional.
Series [23] deals with A549. The experiment in a line: Cell cycle arrest in human A549 cells assessed as accumulation at G0/G1 phase at 16 uM after 48 hrs by propidium iodide staining based flow cytometric analysis (reference value: 42.86%). It is filed as functional.
The subject of series [24] is A549. The experiment in a line: Cell cycle arrest in human A549 cells assessed as accumulation at S phase at 16 uM after 48 hrs by propidium iodide staining based flow cytometric analysis (reference value: 54.85%). It is filed as functional.
The subject of series [25] is A549. Put plainly: Cell cycle arrest in human A549 cells assessed as accumulation at G2/M phase at 16 uM after 48 hrs by propidium iodide staining based flow cytometric analysis (reference value: 2.29%). The format is functional.
In series [26] the test system is A549. The experiment in a line: Cell cycle arrest in human A549 cells assessed as accumulation at G0/G1 phase at 24 uM after 48 hrs by propidium iodide staining based flow cytometric analysis (reference value: 42.86%). It is filed as functional.
Series [27] concerns A549. The experiment in a line: Cell cycle arrest in human A549 cells assessed as accumulation at S phase at 24 uM after 48 hrs by propidium iodide staining based flow cytometric analysis (reference value: 54.85%). It is filed as functional.
For series [28], the system named is A549. The experiment in a line: Cell cycle arrest in human A549 cells assessed as accumulation at G2/M phase at 24 uM after 48 hrs by propidium iodide staining based flow cytometric analysis (reference value: 2.29%). It is filed as functional.
Series [29] concerns A549. Put plainly: Cell cycle arrest in human A549 cells assessed as accumulation at G0/G1 phase after 48 hrs by propidium iodide staining based flow cytometric analysis. The format is functional.
Series [30] has as its system A549. The experiment in a line: Induction of apoptosis in human A549 cells after 48 hrs by annexin V-FITC/propidium iodide staining-based flow cytometric method. It is filed as functional, cell-based.
In series [31] the target is T1, Solute carrier family 2, facilitated glucose transporter member 1. The experiment in a line: Substrate activity at GLUT1 in human A549 cells assessed cellular uptake at 20 uM after 8 hrs in presence of 50 mM D-glucose by HPLC analysis relative to control. It is filed as ADME, cell-based. The note with it: a549, 8 h.
The target is the same in series [32]. The experiment in a line: Substrate activity at GLUT1 in human A549 cells assessed cellular uptake at 20 uM after 8 hrs in presence of 100 mM D-glucose by HPLC analysis relative to control. The format is ADME, cell-based. The note with it: a549, 8 h.
The target is the same in series [33]. Put plainly: Substrate activity at GLUT1 in human A549 cells assessed cellular uptake at 20 uM after 8 hrs in presence of 50 mM GLUT1 inhibitor EDG by HPLC analysis relative to control. The note with it: a549, 8 h. It is filed as ADME, cell-based.
For series [34] the target is unchanged. Put plainly: Substrate activity at GLUT1 in human A549 cells assessed cellular uptake at 20 uM after 8 hrs in presence of 100 mM GLUT1 inhibitor EDG by HPLC analysis relative to control. The note with it: a549, 8 h. The format is ADME, cell-based.

With `COc1cc(COC(C)C)c(Br)c(Br)c1O`, the Drug uptake entry in [1] is recorded as “Not Active”.
As for `COc1cc(CO)c(Br)c(Br)c1OCCCO[C@@H]1O[C@H](CO)[C@@H](O)[C@H]1O`, the IC50 – broadly, the concentration at which inhibition is half-maximal – in series [2] turned out to be 11.2 µM; in series [3] it was 23.6 µM; in [4], 18.8 µM; in [5], 20.4 µM.
As for `COc1cc(COC(C)C)c(Br)c(Br)c1OCCCO[C@@H]1O[C@H](CO)[C@@H](O)[C@H]1O`, the IC50 was 11.3 µM in series [2], 11.4 µM in [3], 14.7 µM in series [4] and 19.3 µM in series [5]. In series [6], the “Ratio IC50” value came out at 2. For the same compound, the Activity result in [7] was “Dose-dependent effect”; in series [8], 91.8%; in [9], 4.18%; in series [10] it was 3.75%; in series [11] it was 0.24%; in series [12] it was 88.1%. Besides, the Activity was found to be 7.66% in series [13]; 3.91% in [14]; 0.32% in series [15]; 81.8% in series [16]; 13.7% in [17]; 4.35% in [18]. For the same compound, the Activity in series [19] worked out at 0.15%; in series [20] it was 59.17%; in series [21] it was 40.83%; in series [22], 0%; in series [23], 76.56%; in series [24], 23.44%. Moreover, the Activity in series [25] is 0%; in series [26] it was 89.56%; in [27], 10.25%; in series [28], 0.19%; in series [29], “Dose-dependent effect”; in [30], “Dose-dependent effect”. In addition, the Drug uptake in series [1] stood at 60.3%; in [31], 51.6%; in [32] it was 49.1%; in series [33], 42.1%; in series [34] it was 34.6%.
